US12070452B2, “Compounds targeting HSP110 protein for cancer treatment” (INSERM (Institut National de la Santé et de la Recherche …, priority 2018, dated 2024)
“Also recorded” adds a separate entry of the source.

How the values were obtained:
[1] = test system: Bcl2 and Bcl-xL; test: Western blot of anti-apoptotic proteins Bcl2 and Bcl-xL in DLBCL cell lines; format: cell-based, human; conditions: TMD8 and HBL1, 76 h in vitro treatment
Procedure: FIG. 10D: Expression analysis of BcL2 (first line), BcL-XL (second line), and Actin (third line) in TMD8 human B cell lymphoma cell line or in HBL1 human diffuse large B-cell lymphoma cell line, both cell lines being treated with Control (DMSO), compound 33 and compound 52.
It has also been shown that compounds 33 and 52 reduce the expression of the anti-apoptotic proteins Bcl2 and Bcl-xL in these two human diffuse large B-cell lymphoma cell lines, as determined by Western blotting after a 76 h in vitro treatment with compound 33 or 52.

[2] = test system: CT26 cells; test: Flow cytometric analysis of cell death (Annexin V / 7-AAD) in CT26 cells; format: cell-based, mouse; conditions: 10 μM, 96 h
Procedure: FIG. 5A: Flow cytometric analysis of cell death in CT26 cells treated with the compound 33 (at the bottom left), compound 52 (at the bottom middle), comparative compound 61 (at the bottom right) at 10 μM during 96 h compared with Control (DMSO) (at the top left), and Cisplatin (at the top middle and top right). Live cells were double negative for 7-AAD (Y axis) and Annexin V (X axis), early apoptotic cells were positive for Annexin V, late apoptotic cells were positive for Annexin V and 7-AAD ([…]) and dead cells were positive for 7-AAD only.
FIG. 5B: Quantification of cell viability (in percentage) from flow cytometry data are represented (Control, cells, compounds 33, 52 and 61 from the left to the right bars). (Abscissa Negativity of 7-AAD; Ordinate Negativity of Annexin V).
We then analyzed cell death in CT26 cells treated with 10 μM during 96 h of compounds 33, 52 and 61 by flow cytometry. Cells were also treated with a well know anti-cancer compound, called cisplatin. Cells were marked for 7-aminoactinomycin D, which exclusively bind on death cells and for Annexin V, a well-known indicators of early stage apoptosis, thanks to its ability to bind to phosphatidylserine.

[3] = test system: HCT116 cells; test: Cell proliferation, Cell Trace Violet flow cytometry, HCT116; format: cell-based, human; conditions: HCT116 cells with shRNA control, 10 μM, 96 h
Procedure: FIG. 4B: Relative quantification of cell proliferation in HCT116 cells transfected with shRNA for shRNA control (shCtrl) (from the first to the fourth columns from left to right) or HSP110-silencing (sh110) ((from the fifth to the last columns, from left to right) left to right) treated with Ctrl (DMSO), compound 33, compound 52, and comparative compound 61 at a concentration of 10 μM during 96 h (Histogram from the left to the right). Ordinate: Percentage of HCT116 cell proliferation (scale 20) for the lower figure. Statistical analysis has been performed by ANOVA **: (p<0.05); ***: p<0.005. Western blot of HSP110 and actin (first and second line of blots) for the shCtrl HCT116 cells and sh110 HCT116 cells (first and second columns).
Colorectal cells lines were purchased from the American Type Culture Collection. CT-26 and HCT116 were cultured in Roswell Park Memorial Institute 1640 medium. […]
Proliferation was determined by staining cells with Cell Trace Violet (Invitrogen-C34557) according to the manufacturer's procedure. Cell divisions were detected over 96 h by flow cytometry (LSRII cytometer) and the number of cell generations was estimated by ModFit software. […]

[4] = test system: DLBCL cell lines; test: Viability of B-cell lymphoma cell lines (Annexin V/7AAD staining); format: cell-based, human; conditions: 96 h, 5-40 μM
Text: FIG. 10E: Viability of various B-cell lymphoma cell lines treated with increasing concentrations of compound 33 (inhibitor 33).
Groups of bars, from the left to the right of FIG. 10E: (i) OCI-Ly10 human diffuse large B-cell lymphoma cell line, (ii) HBL1 human diffuse large B-cell lymphoma cell line, (iii) TMD8 human B cell lymphoma cell line, (iv) OCI-Ly3 human large B-cell lymphoma cell line and (v) U2932 human diffuse large B-cell lymphoma cell line.
In each group of bars, from the left to the right: (i) Control, without treatment, (ii) Compound 33 at 5 μM, (iii) Compound 33 at 10 μM, (iv) Compound 33 at 20 μM, (v) Compound 33 at 30 μM, (vi) Compound 33 at 40 μM.
FIG. 10F: Viability of various B-cell lymphoma cell lines treated with increasing concentrations of compound 52 (inhibitor 52).
Groups of bars, from the left to the right of FIG. 10F: (i) TMD8 human B cell lymphoma cell line and (ii) OCI-Ly3 human large B-cell lymphoma cell line.
In each group of bars, from the left to the right: (i) Control, without treatment (0 μM), (ii) Compound 52 at 5 μM, (iii) Compound 52 at 10 μM, (iv) Compound 52 at 20 μM, (v) Compound 52 at 30 μM, (vi) Compound 52 at 40 μM.

[5] = molecular target: T1, HSP110/Myd88 interaction (Homo sapiens, UniProt Q92598); test: Immunoprecipitation of HSP110/Myd88 in DLBCL cell line; format: cell-based; conditions: IP Myd88, Western Blot
T1 construct: endogenous in cells
Text: FIG. 10A: Immunoprecipitation (IP) analysis of HSP110 (first line), Myd88 (second line), heavy chains (third line) and actin (fourth line) in large B cell lymphoma cell lines (DLBCL).
Left part of FIG. 10A (“Inputs”): treated with (from left to right column of the left part of FIG. 10A) DMSO, compound 52 (5052), compound 33 (5033) and compound 61 (5061) (Negative control);
Middle part of FIG. 10A (“IP Myd88”): treated with (from left to right column of the middle part of FIG. 10A) DMSO, compound 52, compound 33 and compound 61 (as the negative control); Myd88 was immunoprecipitated with an antibody specifically directed against Myd88.
MyD88 was immuno-precipitated from the cell line which has been non-treated or treated with the HSP110 inhibitors.

T1 sequence (Q92598 2-858 limits assumed): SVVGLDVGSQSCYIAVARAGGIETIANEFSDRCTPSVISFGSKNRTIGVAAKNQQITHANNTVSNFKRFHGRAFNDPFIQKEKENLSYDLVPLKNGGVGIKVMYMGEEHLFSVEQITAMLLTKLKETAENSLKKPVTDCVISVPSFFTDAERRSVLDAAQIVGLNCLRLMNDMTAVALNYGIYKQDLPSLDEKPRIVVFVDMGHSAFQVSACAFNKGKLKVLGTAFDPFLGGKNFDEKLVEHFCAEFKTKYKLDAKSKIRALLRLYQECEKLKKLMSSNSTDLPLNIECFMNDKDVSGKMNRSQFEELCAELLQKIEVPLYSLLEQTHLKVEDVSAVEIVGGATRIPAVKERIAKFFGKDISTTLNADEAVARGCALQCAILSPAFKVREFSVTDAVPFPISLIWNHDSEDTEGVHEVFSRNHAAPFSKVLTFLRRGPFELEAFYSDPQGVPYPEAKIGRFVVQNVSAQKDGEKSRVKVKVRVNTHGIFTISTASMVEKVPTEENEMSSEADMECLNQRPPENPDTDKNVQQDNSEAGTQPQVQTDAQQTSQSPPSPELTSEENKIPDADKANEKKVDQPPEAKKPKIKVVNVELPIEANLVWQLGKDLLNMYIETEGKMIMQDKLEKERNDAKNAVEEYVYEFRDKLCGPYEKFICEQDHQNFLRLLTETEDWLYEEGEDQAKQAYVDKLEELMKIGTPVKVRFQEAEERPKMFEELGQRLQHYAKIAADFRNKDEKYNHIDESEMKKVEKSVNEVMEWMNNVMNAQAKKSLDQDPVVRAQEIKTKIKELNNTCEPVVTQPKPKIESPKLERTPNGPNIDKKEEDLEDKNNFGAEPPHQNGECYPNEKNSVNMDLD

SMILES | expression of anti-apoptotic protein Bcl2 [1] | expression of anti-apoptotic protein Bcl-xL [1] | cell death / apoptosis (Annexin V and 7-AAD marking) [2] | hampering of cell proliferation [3] | viability of DLBCL cell lines ([4]; OCI-Ly10, HBL1, TMD8, OCI-Ly3 and U2932) | HSP110/Myd88 interaction [5] | viability of DLBCL cell lines ([4]; TMD8 and OCI-Ly3)
COc1ccc(-c2ncc(-c3ncc(-c4cc(OC)c(OC)c(OC)c4)cc3/C=C/c3ccccc3)cc2C)cc1OC [compound 33, (E)-6′-(3,4-Dimethoxyphenyl)-5′-methyl-3-styryl-5-(3,4,5-trimethoxyphenyl)-2,3′-bipyridine] | reduce | reduce | don't seem to be marked; also recorded: does not allow detecting significally apoptosis | around 40% | reduces the viability | abrogate | –
COc1cc(-c2cnc(-c3cnc(-c4cc(OC)c(OC)c(OC)c4)c(C)c3)c(/C=C/c3ccccc3)c2)cc(OC)c1OC [compound 52, (E)-5′-Methyl-3-styryl-5,6′-bis(3,4,5-trimethoxyphenyl)-2,3′-bipyridine] | reduce | reduce | don't seem to be marked; also recorded: does not allow detecting significally apoptosis | around 40% | – | abrogate | reduces the viability
